Experimental data as given in patent publication US10973863B2, “Method for regulating, preventing and/or treating pulmonary injury” (SINPHAR PHARMACEUTICAL CO., LTD., priority 2017, dated 2021).

Experiments:
[1] = test system: MMP-9; test: Gelatin zymography: LPS-activated active expression of MMP-9 in NR8383 cells; format: cell-based, rat; details: Table 5, LPS 1 μg/mL, 24 hours
Source text: As indicated above, when an inflammatory response occurs in animal's pulmonary tissue, the active inflammatory cells will secret MMPs that will destroy the pulmonary tissue structure, cause more serious pulmonary injury, and lead to the decrement in or the loss of pulmonary functions. […]
Thereafter, the medium of each group was collected and respectively subjected to the following procedures. A 10% polyacrylamide gel containing 0.2% gelatin was used to carry out the sodium dodecyl sulfate polyacrylamide gel electrophoresis (SDS-PAGE). After the electrophoresis was completed, the gel was sequentially soaked in 2.5% Triton X-100 solution for 90 minutes to remove SDS, soaked in distillation-distillation water (ddH2O) for 30 minutes, and placed in a reaction solution (50 mM Tris-HCl buffer containing 10 mM CaCl2 and 0.02% NaN3) at a temperature of 37° C. for 18 hours. After the foregoing reaction was completed, the gel was stained by a Coomassie blue staining solution, and the image of stained gel was taken and subjected to an image analysis. The image intensity (the image intensity was calculated based on the size of area and the shade of color) of highlight band (i.e., the gelatin in this area was degraded by MMPs, wherein the area locating around 95 kD molecular weight) on the gel of each group can reflect the active expression of MMP-9 of rat alveolar macrophage NR8383 cells under different conditions (the relative active expression of MMP-9 was calculated by serving the results of the blank group as 0% and serving that of the control group as 100%).
Rat alveolar macrophage NR8383 cells were divided into twenty-eight groups and separately cultivated with the following media for 24 hours: • (1) Blank group: a macrophage growth medium; • (2) Control group: a macrophage growth medium containing 1 μg/mL LPS; • (3) Positive control group: a macrophage growth medium containing 1 μg/mL LPS and 5 μM Prednisolone (a type of corticosteroid; abbreviated as “Pred”; purchased from Sigma-Aldrich); • (4) Extract C (including five sub-groups): a macrophage growth medium containing 1 μg/mL LPS and the extract C provided by [preparation example A-3-2], wherein the extract C is present in the five sub-groups at a concentration of […] respectively; • (5) Extract D (including five sub-groups): a macrophage growth medium containing 1 μg/mL UPS and the extract D provided by [preparation example A-4-2], wherein the extract D is present in the five sub-groups at a concentration of 0.78, 1.56, 3.13, 6.25 and 12.5 respectively; • (6) Extract E (including five sub-groups): a macrophage growth medium containing 1 μg/mL LPS and the extract E provided from [preparation example A-4-3], wherein the extract E is present in the five sub-groups at a concentration of 0.78, 1.56, 3.13, […], and 12.5 respectively; • (7) DATA group (including five sub-groups): a macrophage growth medium containing 1 μg/mL LPS and the dehydrotrametenolic acid (DTTA) provided by [preparation example C-1], wherein the dehydrotrametenolic acid (DTTA) is present in the five sub-groups at a concentration of 0.39, 0.78, 1.56, 3.13 and 6.25 μg/mL respectively; and • (8) PAA group (including live sub-groups): a macrophage growth medium containing 1 μg/mL LPS and the poricoic acid A (PAA) provided from [preparation example C-1], wherein the poricoic acid A (PAA) is present in the five sub-groups at a concentration of 6.25, 12.5, 25, 50 and 100 respectively.
Thereafter, the medium of each group was collected and analyzed by the analyzing procedures same as that of (1-1).

[2] = test system: Mucin 5AC; test: Western blot: LPS-induced expression of Mucin 5AC in NCI-H929 cells; format: cell-based, human; details: 1 μg/mL LPS, 24 hours, vs control group
Source text: As indicated above, the hypersecretion of mucus in airway can be observed in the patients suffering from pulmonary injury-related diseases, such as chronic obstructive pulmonary disease and emphysema, and the mucus hypersecretion is associated with the overexpression of mucins in pulmonary tissue. Symptoms like the increased sputum production will occur in the patients suffering from the mucin hypersecretion in airway, and the increased sputum will accumulate in the airway and lung, thereby making the airway narrow and increasing respiratory resistance. To investigate the effects of active ingredients of FU-LING extract in regulating, preventing, and/or treating the pulmonary injury-related diseases, such as chronic obstructive pulmonary disease and emphysema, a Western blot was conducted to measure the inhibitory rate of active ingredients of FU-LING extract (tumulosic acid and poricoic acid A) on the LPS-induced expression of Mucin 5AC in human lung epithelial NCI-H929 cells.
Human lung epithelial NCI-H929 cells were divided into ten groups and separately cultivated with the following media for 24 hours:
(1) Control group: an epithelial cell growth medium containing […];
(2) Positive control group: an epithelial cell growth medium containing 1 μg/mL LPS and 10 μM Dex;
(3) TA group (including four sub-groups): an epithelial cell growth medium containing […] the tumulosic acid (TA) provided by [preparation example C-1], wherein the tumulosic acid (TA) is present in the four sub-groups at a concentration of 1.56, 3.13, 6.25 and 12.5 μg/mL respectively; and
(4) PAA group (including four sub-groups): an epithelial cell growth medium containing 1 μg/mL LPS the poricoic acid A (PAA) provided by [preparation example C-1], wherein the poricoic acid A (PAA) is present in the four sub-groups at a concentration of 6.25, 12.5, 25 and 50 μg/mL respectively.
Thereafter, the proteins in the cells of each group were extracted and then subjected to a Western blot to measure the expression level of Mucin 5AC. The relative expression level of Mucin 5AC of each group was calculated by using the results of the control group as a basis (i.e., the expression level of control group was served as 1-fold).

SMILES: C=C(CC[C@@H](C(=O)O)[C@H]1[C@H](O)C[C@@]2(C)C3=CC[C@@H](C(=C)C)[C@](C)(CCC(=O)O)C3=CC[C@]12C)C(C)C [PAA, poricoic acid A]
- Relative active expression of MMP-9 (%) ([1]; 6.25 μg/mL): 82%
- Relative active expression of MMP-9 (%) ([1]; 12.5 μg/mL): 77%
- Relative active expression of MMP-9 (%) ([1]; 25 μg/mL): 60%
- Relative active expression of MMP-9 (%) ([1]; 50 μg/mL): 35%
- Relative active expression of MMP-9 (%) ([1]; 100 μg/mL): 18%
- Inhibitory rate on LPS-induced expression of Mucin 5AC ([2]; 6.25 μg/mL (low-dose)): up to 63%
- Inhibitory rate on LPS-induced expression of Mucin 5AC ([2]; 50 μg/mL (high-dose)): ≤ 87%
